Assay results taken from patent US20120295907A1, “INSECTICIDAL COMPOUNDS” (SYNGENTA CROP PROTECTION, LLC, priority 2009, published 2012).

Columns and labels:
[1] = tested on: Tetranychus urticae; test: Tetranychus urticae (Two-Spotted Spider Mite) bean leaf disc spray test; format: in vivo; settings: foliar, 192 h, 200 ppm spray on bean leaf discs, mite populations of mixed ages, 8 days, egg, larval and adult mortality, read-out: control of Tetranychus urticae
[2] = tested on: Diabrotica balteata; test: Diabrotica balteata (Corn Root Worm) artificial diet MTP test; format: in vivo; settings: 120 h, 200 ppm (concentration in well 18 ppm), L2 larvae, 5 days, larval mortality, growth regulation
[3] = tested on: Plutella xylostella; test: Plutella xylostella (Diamond Back Moth) artificial diet MTP test; format: in vivo; settings: 144 h, 200 ppm (concentration in well 18 ppm), L2 larvae, 6 days, larval mortality, growth regulation
[4] = tested on: Spodoptera littoralis; test: Spodoptera littoralis (Egyptian Cotton Leafworm) cotton leaf disc spray test; format: in vivo; settings: foliar, 72 h, 200 ppm spray on cotton leaf discs, L1 larvae, mortality, feeding behavior, growth regulation 3 DAT
[5] = tested on: Thrips tabaci; test: Thrips tabaci (Onion Thrips) sunflower leaf disc spray test; format: in vivo; settings: foliar, 168 h, 200 ppm spray on sunflower leaf discs, population of mixed ages, 7 days, mortality
[6] = tested on: Heliothis virescens; test: Heliothis virescens (Tobacco Budworm) egg test on artificial diet; format: in vivo; settings: 96 h, 200 ppm (concentration in well 18 ppm), eggs 0-24 h old on artificial diet, 4 days, egg mortality, larval mortality, growth regulation
[7] = tested on: Myzus persicae; test: Myzus persicae (Green Peach Aphid) sunflower leaf disc spray test; format: in vivo; settings: foliar, 144 h, 200 ppm spray on sunflower leaf discs, aphid population of mixed ages, 6 DAT, mortality

Row | melting point [°C] | SMILES | pest or weed control at 200 ppm [1] [%] | pest or weed control at 200 ppm [2] [%] | pest or weed control at 200 ppm [3] [%] | pest or weed control at 200 ppm [4] [%] | pest or weed control at 200 ppm [5] [%] | pest or weed control at 200 ppm [6] [%] | pest or weed control at 200 ppm [7] [%]
1 | 218 | COc1c(NC(=O)c2cc(C)c([N+](=O)[O-])c(C)c2)cccc1C(=O)Nc1c(Cl)cc(C(F)(C(F)(F)F)C(F)(F)C(F)(F)F)cc1Br (centres unmarked) [B165] |  |  |  |  |  |  | 
2 | 238 | CCOc1cc(C(=O)Nc2cccc(C(=O)Nc3c(Cl)cc(C(F)(C(F)(F)F)C(F)(F)C(F)(F)F)cc3Br)c2OC)ccc1[N+](=O)[O-] (centres unmarked) [B173] |  |  |  |  |  |  | 
3 | 190 | COc1cc([N+](=O)[O-])ccc1C(=O)Nc1cccc(C(=O)Nc2c(Cl)cc(C(F)(C(F)(F)F)C(F)(F)C(F)(F)F)cc2Br)c1OC (centres unmarked) [B177] |  |  |  |  |  |  | 
4 | 208 to 210 | COc1c(NC(=O)c2ccc(C#N)cn2)cccc1C(=O)Nc1c(Cl)cc(C(F)(C(F)(F)F)C(F)(F)C(F)(F)F)cc1Br (centres unmarked) [B208] |  |  |  |  |  |  | 
5 | 250 | COc1c(NC(=O)c2c(Cl)cc(Br)cc2Cl)cccc1C(=O)Nc1c(Cl)cc(C(F)(C(F)(F)F)C(F)(F)C(F)(F)F)cc1Br (centres unmarked) [B209] |  |  |  |  |  |  | 
6 | 114 to 115 | COc1c(NC(=O)c2cnc(Cl)nc2Cl)cccc1C(=O)Nc1c(Cl)cc(C(F)(C(F)(F)F)C(F)(F)C(F)(F)F)cc1Br (centres unmarked) [B210] |  |  |  |  |  |  | 
7 | 113 to 118 | COc1c(NC(=O)c2c(C)cc(Cl)cc2Cl)cccc1C(=O)Nc1c(Cl)cc(C(F)(C(F)(F)F)C(F)(F)C(F)(F)F)cc1Br (centres unmarked) [B211] |  |  |  |  |  |  | 
8 | 83 to 84 | COc1c(NC(=O)c2cc([N+](=O)[O-])c(F)cc2C)cccc1C(=O)Nc1c(Cl)cc(C(F)(C(F)(F)F)C(F)(F)C(F)(F)F)cc1Br (centres unmarked) [B212] |  |  |  |  |  |  | 
9 |  | COc1c(NC(=O)c2ccccc2C)cccc1C(=O)Nc1c(Cl)cc(C(F)(C(F)(F)F)C(F)(F)C(F)(F)F)cc1Cl (centres unmarked) [C4] | ≥ 80 | ≥ 80 | ≥ 80 | ≥ 80 | ≥ 80 | ≥ 80 | ≥ 80
10 |  | COc1c(NC(=O)c2ccccc2Cl)cccc1C(=O)Nc1c(Cl)cc(C(F)(C(F)(F)F)C(F)(F)C(F)(F)F)cc1Cl (centres unmarked) [C5] | ≥ 80 | ≥ 80 | ≥ 80 | ≥ 80 | ≥ 80 | ≥ 80 | ≥ 80
11 |  | COc1c(NC(=O)c2ccc(C#N)cc2)cccc1C(=O)Nc1c(Cl)cc(C(F)(C(F)(F)F)C(F)(F)C(F)(F)F)cc1Cl (centres unmarked) [C6] | ≥ 80 | ≥ 80 | ≥ 80 | ≥ 80 | ≥ 80 | ≥ 80 | ≥ 80
12 |  | COc1c(NC(=O)c2ccc(C)cc2)cccc1C(=O)Nc1c(Cl)cc(C(F)(C(F)(F)F)C(F)(F)C(F)(F)F)cc1Cl (centres unmarked) [C8] | ≥ 80 | ≥ 80 | ≥ 80 | ≥ 80 | ≥ 80 | ≥ 80 | ≥ 80
13 |  | COc1c(NC(=O)c2ccc(F)cc2)cccc1C(=O)Nc1c(Cl)cc(C(F)(C(F)(F)F)C(F)(F)C(F)(F)F)cc1Cl (centres unmarked) [C19] | ≥ 80 | ≥ 80 | ≥ 80 | ≥ 80 | ≥ 80 | ≥ 80 | ≥ 80
14 |  | COc1c(NC(=O)c2ccc(C#N)cc2)cccc1C(=O)Nc1c(Cl)cc(C(F)(C(F)(F)F)C(F)(F)F)cc1Cl [E4] | ≥ 80 | ≥ 80 | ≥ 80 | ≥ 80 | ≥ 80 | ≥ 80 | ≥ 80
15 |  | COc1c(NC(=O)c2ccc([N+](=O)[O-])cc2)cccc1C(=O)Nc1c(Cl)cc(C(F)(C(F)(F)F)C(F)(F)F)cc1Cl [E5] | ≥ 80 | ≥ 80 | ≥ 80 | ≥ 80 | ≥ 80 | ≥ 80 | ≥ 80
16 |  | COc1c(NC(=O)c2ccc([N+](=O)[O-])cc2Cl)cccc1C(=O)Nc1c(Cl)cc(C(F)(C(F)(F)F)C(F)(F)F)cc1Cl [E9] | ≥ 80 | ≥ 80 | ≥ 80 | ≥ 80 | ≥ 80 | ≥ 80 | ≥ 80
17 |  | COc1c(NC(=O)c2ccc(C(F)(F)F)cc2)cccc1C(=O)Nc1c(Cl)cc(C(F)(C(F)(F)F)C(F)(F)F)cc1Cl [E13] | ≥ 80 | ≥ 80 | ≥ 80 | ≥ 80 | ≥ 80 | ≥ 80 | ≥ 80
18 |  | COc1c(NC(=O)c2ccc(F)cc2)cccc1C(=O)Nc1c(Cl)cc(C(F)(C(F)(F)F)C(F)(F)F)cc1Cl [E17] | ≥ 80 | ≥ 80 | ≥ 80 | ≥ 80 | ≥ 80 | ≥ 80 | ≥ 80
19 |  | COc1c(NC(=O)c2ccc(F)cc2Cl)cccc1C(=O)Nc1c(C)cc(C(F)(C(F)(F)F)C(F)(F)C(F)(F)F)cc1C (centres unmarked) [F30] | ≥ 80 | ≥ 80 | ≥ 80 | ≥ 80 | ≥ 80 | ≥ 80 | ≥ 80
20 |  | COc1c(NC(=O)c2ccc([N+](=O)[O-])cc2)cccc1C(=O)Nc1c(C)cc(C(F)(C(F)(F)F)C(F)(F)F)cc1C [K2] | ≥ 80 | ≥ 80 | ≥ 80 | ≥ 80 | ≥ 80 | ≥ 80 | ≥ 80
